Laboratory results taken from US9309222B2, “Phenyl linked quinolinyl modulators of RORγt” (Janssen Pharmaceutica NV, priority 2012, dated 2016).
Counter-ions that a name gives are not always drawn.

Columns and labels:
human RORγt LBD = molecular target: T1, human RORγt LBD (Homo sapiens, UniProt P51449); experiment: RORγt reporter assay (GAL4-RORγt LBD luciferase in HEK293T cells); type: cell-based; settings: for IC50 / RORγt reporter Assay, % inhibition @ 6 μM: HEK293T cells; for IC50: 24 hours compound treatment; for inhibition at 6 µM: HEK-293T, read-out: RORγt reporter Assay, % inhibition @ 6 μM, HEK293T cells, 6 μM compound; for RORγt reporter Assay, % inhibition @ 6 μM: 6 μM compound
T1 construct: expressed in transfected cells
T1 sequence (P51449 258-518): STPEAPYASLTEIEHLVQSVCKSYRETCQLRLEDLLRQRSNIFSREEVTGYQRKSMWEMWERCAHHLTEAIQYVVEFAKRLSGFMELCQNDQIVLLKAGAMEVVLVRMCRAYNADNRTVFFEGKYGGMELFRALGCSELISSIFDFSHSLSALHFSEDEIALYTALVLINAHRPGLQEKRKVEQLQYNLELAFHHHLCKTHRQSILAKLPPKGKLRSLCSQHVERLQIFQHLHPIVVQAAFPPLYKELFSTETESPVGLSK
In short: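 Read-out is the firefly-to-renilla luciferase ratio versus compound concentration, after 24 h compound exposure of cells in phenol-red-free DMEM/5% lipid-reduced FCS. Cells were HEK293T bulk-transfected with a GAL4-responsive firefly reporter (pGL4.31) and GAL4 DBD–wild-type human RORγt LBD fusion (pBIND, renilla as transfection/viability control).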

[1] = tested on: IL-17 production by CD4 T cells; experiment: Human Th17 assay (IL-17 production by CD4 T cells under Th17 differentiation conditions); type: cell-based; settings: IL-17 in supernatant after 3 days
Experimental: The human Th17 assay tests the effect of RORγt modulatory compounds on IL-17 production by CD4 T cells under conditions which favor Th17 differentiation. Total CD4^+ T cells were isolated from the peripheral blood mononuclear cells (PBMC) of healthy donors using a CD4^+ T cell isolation kit II, following the manufacturer's instructions (Miltenyi Biotec). […] 50 μL of compound at titrated concentrations in DMSO were added into each well at final DMSO concentration at 0.2%. Cells were incubated for 1 hour, then 50 μL of Th17 cell differentiation medium was added to each well. The final concentrations of antibodies and cytokines (R&D Systems) in differentiation medium were: 3×10^6/mL anti-CD3/CD28 beads (prepared using human T cell activation/expansion kit, Miltenyi Biotec), 10 μg/mL anti-IL4, 10 μg/mL anti-IFNγ, 10 ng/mL IL113, 10 ng/mL IL23, 50 ng/mL IL6, 3 ng/mL TGFβ and 20 U/mL IL2. Cells were cultured at 37° C. and 5% CO2 for 3 days. Supernatants were collected and the accumulated IL-17 in culture was measured by using MULTI-SPOT® Cytokine Plate following manufacture's instruction (Meso Scale Discovery). The plate was read using Sector Imager 6000, and IL-17 concentration was extrapolated from the standard curve. The IC50s were determined by GraphPad.

[2] = molecular target: T2, human RORγt ligand binding domain (RORγt LBD) (Homo sapiens, UniProt P51449); experiment: RORγt ThermoFluor assay (thermal shift, ligand binding affinity); settings: estimated from concentration response of thermal shift
T2 construct: His-tag (N); TurboTEV protease cleavage site (ENLYFQG) (N); made in house; host or cells: E. coli (pHIS1, modified pET vector)
T2 sequence (P51449 with tags, fused parts or gaps): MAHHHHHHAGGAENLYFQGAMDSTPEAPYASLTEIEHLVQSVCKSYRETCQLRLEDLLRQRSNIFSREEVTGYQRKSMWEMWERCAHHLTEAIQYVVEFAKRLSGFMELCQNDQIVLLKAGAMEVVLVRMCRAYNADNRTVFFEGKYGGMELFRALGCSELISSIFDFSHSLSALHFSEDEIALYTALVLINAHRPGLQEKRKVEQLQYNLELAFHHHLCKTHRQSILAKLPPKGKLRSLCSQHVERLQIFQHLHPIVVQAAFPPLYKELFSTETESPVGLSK
In short: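 Thermal shift of 0.065 mg/mL RORγt with 60 μM 1,8-ANS in 100 mM Hepes pH 7.0, 10 mM NaCl, 2.5 mM GSH, 0.002% Tween-20. Compounds in 1:2 series from 10 mM DMSO stock. Dye fluorescence (500 nm emission) tracked versus temperature; ΔTm used to derive KD.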

| SMILES | IC50 (human RORγt LBD) [µM] | inhibition at 6 µM (human RORγt LBD) [%] | IC50 ([1]; Homo sapiens, CD4+ T, 72 h) [µM] | Kd [2] [µM] | IC50 [1] [µM] | RORγt reporter Assay, % inhibition @ 6 μM (human RORγt LBD) [%] |
| --- | --- | --- | --- | --- | --- | --- |
| CN(C)c1c(-c2ccccc2)c(Cl)nc2ccc(C(O)(c3cccnc3)c3cncn3C)cc12 (stereo not drawn) [Example 35, [2-Chloro-4-(dimethylamino)-3-phenylquinolin-6-yl](1-methyl-1H-imidazol-5-yl)pyridin-3-ylmethanol•TFA] | 0.34 | 97 | 0.77 | 0.33 |  |  |
| Cn1cncc1C(O)(c1ccc(Cl)cc1)c1ccc2nc(Cl)c(-c3cccc(Cl)c3)c(Cl)c2c1 (stereo not drawn) [Example 187, (4-Chlorophenyl)(2,4-dichloro-3-(3-chlorophenyl)quinolin-6-yl)(1-methyl-1H-imidazol-5-yl)methanol] |  | 73 | > 6 | 0.1 |  |  |
| CC(C)Oc1nc2ccc(C(O)(c3ccncc3)c3cncn3C)cc2c(N(C)C)c1-c1ccccc1 (stereo not drawn) [Example 90, [4-(Dimethylamino)-2-(1-methylethoxy)-3-phenylquinolin-6-yl](1-methyl-1H-imidazol-5-yl)pyridin-4-ylmethanol•TFA] | 0.3 | 96 | 0.8 | 0.091 |  |  |
| Cn1cncc1C(O)(c1cccnc1)c1cc(F)c2nc(Cl)c(-c3ccccc3)c(Cl)c2c1 (stereo not drawn) [Example 154, (2,4-Dichloro-8-fluoro-3-phenylquinolin-6-yl)(1-methyl-1H-imidazol-5-yl)(pyridin-3-yl)methanol•TFA] | 0.97 | 90 | 1.9 | 0.12 |  |  |
| OC(c1cccnc1)(c1cccnc1)c1ccc2nc(Cl)c(-c3ccccc3)c(Cl)c2c1 [Example 24, (2,4-Dichloro-3-phenylquinolin-6-yl)(dipyridin-3-yl)methanol•TFA] | 0.079 | 104 | 0.32 | 0.024 | ~0.2 |  |
| OC(c1cccnc1)(c1ccc2nc(Cl)c(-c3ccccc3)c(Cl)c2c1)c1ccccn1 (stereo not drawn) [Example 26, (2,4-Dichloro-3-phenylquinolin-6-yl)(pyridin-2-yl)pyridin-3-ylmethanol•TFA] | 0.7 | 100 | 2.8 | 1.3 |  |  |
| Cc1ccc(C(O)(c2cc(C)c3nc(Cl)c(-c4ccccc4)c(Cl)c3c2)c2sccc2C)cn1 (stereo not drawn) [Example 158, (2,4-Dichloro-8-methyl-3-phenylquinolin-6-yl)(6-methylpyridin-3-yl)(3-methylthiophen-2-yl)methanol] | 0.49 | 79 | > 6 | 2 |  |  |
| CCN(CC)c1nc2ccc(C(O)(c3cccnc3)c3cccc(Cl)c3)cc2c(Cl)c1-c1ccccc1 (stereo not drawn) [Example 100, (4-Chloro-2-(diethylamino)-3-phenylquinolin-6-yl)(3-chlorophenyl)pyridin-3-ylmethanol•TFA] | 0.16 | 95 | 0.15 | 0.35 |  |  |
| Cc1cc(C(O)(c2ccc3nc(Cl)c(-c4ccccc4)c(Cl)c3c2)c2cncn2C)cc(Cl)n1 (stereo not drawn) [Example 87, (2-Chloro-6-methylpyridin-4-yl)(2,4-dichloro-3-phenylquinolin-6-yl)(1-methyl-1H-imidazol-5-yl)methanol•TFA] | 0.0053 | 105 | ~0.002 | 0.00011 |  |  |
| CCOc1nc2ccc(C(O)(c3ccncc3)c3cncn3C)cc2c(N(C)C)c1-c1ccccc1 (stereo not drawn) [Example 92, [4-(Dimethylamino)-2-ethoxy-3-phenylquinolin-6-yl](1-methyl-1H-imidazol-5-yl)pyridin-4-ylmethanol•TFA] | 0.12 | 100 | 0.15 | 0.044 |  |  |
| Cn1cncc1C(O)(c1ccc(Cl)cc1)c1ccc2nc(Cl)c(-c3ccccc3)c(Cl)c2c1 (racemic) [Example 119a, (4-Chlorophenyl)(2,4-dichloro-3-phenylquinolin-6-yl)(1-methyl-1H-imidazol-5-yl)methanol] |  |  | 1.8 |  |  |  |
| CN(C)c1nc2ccc(C(O)(c3ccncc3)c3cncn3C)cc2c(Cl)c1-c1ccccc1 (stereo not drawn) [Example 48a, (4-Chloro-2-(dimethylamino)-3-phenylquinolin-6-yl)(1-methyl-1H-imidazol-5-yl)pyridin-4-ylmethanol•TFA] |  |  | 0.019 |  |  |  |
| Cc1cc(C(O)(c2ccc3nc(Cl)c(-c4ccccc4)c(Cl)c3c2)c2cncn2C)ccn1 (stereo not drawn) [Example 67, (2,4-Dichloro-3-phenylquinolin-6-yl)(1-methyl-1H-imidazol-5-yl)(2-methylpyridin-4-yl)methanol•TFA] |  |  | 0.027 |  |  |  |
| Cn1cncc1C(O)(c1ccc(Cl)cc1)c1ccc2nc(Cl)c(-c3ccccc3)c(Cl)c2c1 (single isomer, unassigned) [Example 119b, (4-Chlorophenyl)(2,4-dichloro-3-phenylquinolin-6-yl)(1-methyl-1H-imidazol-5-yl)methanol] |  |  |  |  | 15 |  |
| Cc1nc(C)c(C(O)(c2ccc3nc(Cl)c(-c4ccccc4)c(Cl)c3c2)c2cncn2C)s1 (stereo not drawn) [Example 143, (2,4-Dichloro-3-phenylquinolin-6-yl)(2,4-dimethylthiazol-5-yl)(1-methyl-1H-imidazol-5-yl)methanol] |  |  | 0.02 |  |  |  |

More lines, now with the values ahead:

| IC50 (human RORγt LBD) [µM] | inhibition at 6 µM (human RORγt LBD) [%] | IC50 ([1]; Homo sapiens, CD4+ T, 72 h) [µM] | Kd [2] [µM] | IC50 [1] [µM] | RORγt reporter Assay, % inhibition @ 6 μM (human RORγt LBD) [%] | SMILES |
| --- | --- | --- | --- | --- | --- | --- |
| 0.053 |  |  | 0.023 | 0.16 | 105 | CC(=O)N1CCC(C(O)(c2ccc3nc(C(F)(F)F)c(-c4ccccc4)c(C(F)(F)F)c3c2)c2cncn2C)CC1 (single isomer, unassigned) [Example 181c, 1-(4-(Hydroxy(1-methyl-1H-imidazol-5-yl)(3-phenyl-2,4-bis(trifluoromethyl)quinolin-6-yl)methyl)piperidin-1-yl)ethanone] |
| 0.17 |  |  | 0.093 | 0.097 | 99 | COc1nc2c(C)cc(C(O)(c3ccc(F)cc3)c3cncn3C)cc2c(C#N)c1-c1cccc(F)c1 (single isomer, unassigned) [Example 180c, 3-(3-Fluorophenyl)-6-((4-fluorophenyl)(hydroxy)(1-methyl-1H-imidazol-5-yl)methyl)-2-methoxy-8-methylquinoline-4-carbonitrile] |
| 0.1 |  |  | 0.052 | 0.11 | 96 | CC(=O)N1CCC(C(O)(c2ccccc2)c2ccc3nc(C(F)(F)F)c(-c4ccccc4)c(C(F)(F)F)c3c2)CC1 (single isomer, unassigned) [Example 169c, 1-(4-(Hydroxy(phenyl)(3-phenyl-2,4-bis(trifluoromethyl)quinolin-6-yl)methyl)piperidin-1-yl)ethanone] |
| 0.13 | 103 | 0.096 | 0.029 |  |  | Cn1cncc1C(O)(c1ccc2nc(C(F)(F)F)c(-c3ccccc3)c(C(F)(F)F)c2c1)c1ccccn1 (single isomer, unassigned) [Example 185b, (1-Methyl-1H-imidazol-5-yl)(3-phenyl-2,4-bis(trifluoromethyl)quinolin-6-yl)(pyridin-2-yl)methanol] |
|  |  | 0.13 |  |  | 95 | Cn1cncc1C(O)(c1ccc(C(F)(F)F)nc1)c1ccc2nc(C(F)(F)F)c(-c3ccccc3)c(C#N)c2c1 (single isomer, unassigned) [Example 173c, 6-(Hydroxy(1-methyl-1H-imidazol-5-yl)(6-(trifluoromethyl)pyridin-3-yl)methyl)-3-phenyl-2-(trifluoromethyl)quinoline-4-carbonitrile] |
